Patent US20260042764A1, “COMPOSITIONS AND METHODS FOR INHIBITION OF KRAS” (TheRas, Inc., priority 2022, published 2026)

Legend:
[1] = target: T1, Avi-KRAS G12R (1-169) GppNHp/RAF1 RBD-3xFLAG (52-151) (Homo sapiens, UniProt P01116, G12R); assay: Raf1-KRAS G12R-GppNHP disruption HTRF assay (Biological Example 1); format: binding
T1 construct: Avi-KRAS G12R (1-169)
Outline: (§1)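 HTRF PPI disruption; buffer 50 mM Tris pH 7.5, 100 mM NaCl, 5 mM MgCl2, 0.1% BSA, 0.01% Tween, 10% DMSO. Protein mix 1 h RT shaking, reagent mix 1 h RT shaking. Data as % activity vs DMSO (100%).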

[2] = test system: SW620 cells (KRAS G12V); assay: Cell-based pERK HTRF assay in SW620 cell (Biological Example 4); settings: Homo sapiens, SW-620, SW620 (KRAS G12V) cells, pERK HTRF
Experimental: A pERK assay (Perkin Elmer) was used to determine the effectiveness of compounds in disrupting KRAS G12V protein/effector signaling in cells.
On Day 1, cells (SW620) were seeded into 96-well plates at 3×10^4 cells/well in 80 μL complete growth media (RPMI, 10% FBS).
On Day 2, cells were treated with compounds at 0.25% DMSO. The source plate was created with compounds diluted in media at 5-fold the final assay concentration. The compounds were run in a 9-point concentration curve starting at 1 μM, with a half-log dilution between concentrations. Twenty μL was transferred onto the cell plates (final volume in wells was 100 μL). Plates were harvested after 4 h incubation by aspirating media and adding kit-supplied 1x supplemented lysis buffer to all wells (50 μL per well). Plates were then placed on a plate shaker and incubated at 850 rpm for an additional 30 min.
Antibody mixture solution was prepared by diluting aliquoted d2 and Eu Cryptate antibodies 1:20 in kit supplied detection buffer and mixing the diluted antibodies solutions (1:1 v:v).
Samples were homogenized by pipetting up and down and then transferred (16 μL of cell lysates) from the 96-well cell culture plate to two wells of the HTRF 384-well detection plate containing the antibody solution. Plates were centrifuged (524 g for Imin) and allowed to incubate between 4 and 24 h at room temperature. […] Plates were centrifuged again (524 g for 1 min), then analyzed on the En Vision plate reader using the following settings: Excitation 320 nm, Bandwidth 75 nm; Emission 615 nm, Bandwidth 85 nm; Gain 100%; Flashes 100; Lag 60 μs.

[3] = target: T2, Avi-KRAS G12D (1-169) GppNHp/RAF1 RBD-3xFLAG (52-151) (Homo sapiens, UniProt P01116, G12D); assay: Raf1-KRAS G12D-GppNHP disruption HTRF assay (Biological Example 1); format: binding
T2 construct: Avi-KRAS G12D (1-169)
Outline: as §1

[4] = target: T3, Avi-KRAS G12V (1-169) GppNHp/RAF1 RBD-3xFLAG (52-151) (Homo sapiens, UniProt P01116, G12V); assay: Raf1-KRAS G12V-GppNHP disruption HTRF assay (Biological Example 1); format: binding
T3 construct: Avi-KRAS G12V (1-169)
Outline: as §1

[5] = test system: GP2d cells (KRAS G12D); assay: Cell-based pERK HTRF assay in GP2d cell (Biological Example 2); settings: GP2d, GP2d (KRAS G12D) cells, pERK HTRF
Outline: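 HTRF read-out of pERK (excitation 320 nm, emission 615 nm) after lysates sat 4–24 h at room temperature with Eu cryptate and d2 antibodies.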

[6] = target: T4, Avi-KRAS WT (1-169) GppNHp/RAF1 RBD-3xFLAG (52-151) (Homo sapiens, UniProt P01116); assay: Raf1-KRAS WT-GppNHP disruption HTRF assay (Biological Example 1); format: binding
T4 construct: Avi-KRAS WT (1-169)
Outline: as §1

[7] = KRAS G12R, GppNHp-loaded, class symbols
[8] = KRAS G12D, GppNHp-loaded, class symbols
[9] = KRAS G12V, GppNHp-loaded, class symbols
[10] = KRAS WT, GppNHp-loaded, class symbols
[11] = KRAS G12R, GppNHp-loaded, Table 11
[12] = KRAS G12D, GppNHp-loaded, Table 11
[13] = KRAS G12V, GppNHp-loaded, Table 11
[14] = KRAS WT, GppNHp-loaded, Table 11

T4 sequence (P01116 1-169 isoform P01116-2): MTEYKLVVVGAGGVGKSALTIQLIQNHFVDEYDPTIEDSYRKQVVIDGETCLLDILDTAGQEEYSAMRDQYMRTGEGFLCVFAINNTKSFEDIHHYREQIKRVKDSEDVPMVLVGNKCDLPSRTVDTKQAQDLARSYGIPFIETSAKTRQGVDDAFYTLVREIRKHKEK
T1 sequence (P01116 1-169 isoform P01116-2 G12R): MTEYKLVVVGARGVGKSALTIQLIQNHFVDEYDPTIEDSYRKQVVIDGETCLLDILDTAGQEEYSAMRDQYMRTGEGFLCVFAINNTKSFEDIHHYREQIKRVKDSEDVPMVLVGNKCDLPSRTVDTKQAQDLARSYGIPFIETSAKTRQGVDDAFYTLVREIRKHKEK
T3 sequence (P01116 1-169 isoform P01116-2 G12V): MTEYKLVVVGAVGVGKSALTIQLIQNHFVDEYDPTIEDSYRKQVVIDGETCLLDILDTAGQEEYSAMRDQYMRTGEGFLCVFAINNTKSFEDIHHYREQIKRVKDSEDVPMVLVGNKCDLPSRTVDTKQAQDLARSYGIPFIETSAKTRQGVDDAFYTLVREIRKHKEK
T2 sequence (P01116 1-169 isoform P01116-2 G12D): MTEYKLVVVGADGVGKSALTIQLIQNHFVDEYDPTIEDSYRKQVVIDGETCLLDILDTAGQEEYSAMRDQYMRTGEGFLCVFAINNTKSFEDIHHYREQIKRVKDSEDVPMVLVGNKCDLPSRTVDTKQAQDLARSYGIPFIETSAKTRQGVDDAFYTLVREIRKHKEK

Row | IC50 ([1]; KRAS G12R-GppNHp/RAF1 RBD HTRF) [µM] | IC50 [2] [µM] | IC50 ([3]; KRAS G12D-GppNHp/RAF1 RBD HTRF) [µM] | IC50 ([4]; KRAS G12V-GppNHp/RAF1 RBD HTRF) [µM] | IC50 [5] [µM] | IC50 ([6]; KRAS WT-GppNHp/RAF1 RBD HTRF) [µM] | IC50 [1, 7] [µM] | IC50 ([2]; class symbols) [µM] | IC50 [3, 8] [µM] | IC50 [4, 9] [µM] | IC50 ([5]; class symbols) [µM] | IC50 [6, 10] [µM] | IC50 [1, 11] [µM] | IC50 [3, 12] [µM] | IC50 [4, 13] [µM] | IC50 [6, 14] [µM] | SMILES
1 | 0.1 to 1 | < 0.1 | 0.1 to 1 | 0.1 to 1 | < 0.1 | 0.1 to 1 | – | – | – | – | – | – | – | – | – | – | N#Cc1c(N)sc2c(F)ccc(-c3c(C(F)(F)F)cc4c(N5CCCCCC5)nc(OC[C@@]56CCCN5C[C@H](F)C6)nc4c3F)c12 [Compound 305]
2 | – | – | – | – | – | – | < 0.1 | < 0.1 | < 0.1 | < 0.1 | < 0.1 | < 0.1 | – | – | – | – | CCN(c1nc(OC[C@@]23CCCN2C[C@H](F)C3)nc2c(F)c(-c3ccc(F)c4sc(N)c(C#N)c34)c(C(F)(F)F)cc12)[C@H]1CCN(C(=O)c2ccncn2)C1 (atropisomer, axis not shown) [Compound 730]
3 | – | – | – | – | – | – | 0.1 to 1 | < 0.1 | 0.1 to 1 | 0.1 to 1 | < 0.1 | 0.1 to 1 | – | – | – | – | CN(Cc1cccnc1)c1nc(OC[C@@]23CCCN2C[C@H](F)C3)nc2c(F)c(-c3ccc(F)c4sc(N)c(C#N)c34)c(C(F)(F)F)cc12 (atropisomer, axis not shown) [Compound 698]
4 | – | – | – | – | – | – | 0.1 to 1 | < 0.1 | 0.1 to 1 | 0.1 to 1 | < 0.1 | 0.1 to 1 | – | – | – | – | CCN(CC)C(=O)c1nn2c(c1C)CN(c1nc(OCC34CCCN3CC(F)C4)nc3c(F)c(-c4ccc(F)c5sc(N)c(C#N)c45)c(C(F)(F)F)cc13)CC2 (stereo not drawn) [Compound 740]
5 | 1 to 10 | < 0.1 | 0.1 to 1 | 1 to 10 | < 0.1 | 1 to 10 | – | – | – | – | – | – | – | – | – | – | CN(C)C(=O)[C@H]1CC[C@@H](N(C)c2nc(OC[C@@]34CCCN3C[C@H](F)C4)nc3c(F)c(-c4ccc(F)c5sc(N)c(C#N)c45)c(C(F)(F)F)cc23)C1 [Compound 497]
6 | – | < 0.1 | – | – | < 0.1 | – | – | – | – | – | – | – | 0.1 to 1 | 0.1 to 1 | 0.1 to 1 | 0.1 to 1 | N#Cc1c(N)sc2c(F)ccc(-c3c(C(F)(F)F)cc4cnc(OC[C@@]56CCCN5C[C@H](F)C6)nc4c3F)c12 [Compound 213, 2-amino-7-fluoro-4-[8-fluoro-2-[[(2R,8S)-2-fluoro-1,2,3,5,6,7-hexahydropyrrolizin-8-yl]methoxy]-6-(trifluoromethyl)quinazolin-7-yl]benzothiophene-3-carbonitrile]
7 | – | – | – | – | – | – | < 0.1 | < 0.1 | < 0.1 | < 0.1 | < 0.1 | < 0.1 | – | – | – | – | CCN(c1nc(OCC23CCCN2CC(F)C3)nc2c(F)c(-c3ccc(F)c4sc(N)c(C#N)c34)c(C(F)(F)F)cc12)C1CCN(C(=O)c2cccnc2)C1 (stereo not drawn) [Compound 715]
8 | 0.1 to 1 | < 0.1 | 0.1 to 1 | 0.1 to 1 | < 0.1 | 0.1 to 1 | – | – | – | – | – | – | – | – | – | – | C[C@H]1C[C@H](N(C)c2nc(OC[C@@]34CCCN3C[C@H](F)C4)nc3c(F)c(-c4ccc(F)c5sc(N)c(C#N)c45)c(C(F)(F)F)cc23)CN1C(=O)C1CC1 [Compound 437]
9 | < 0.1 | < 0.1 | < 0.1 | < 0.1 | < 0.1 | < 0.1 | – | – | – | – | – | – | – | – | – | – | CCN(c1nc(OC[C@@]23CCCN2C[C@H](F)C3)nc2c(F)c(-c3ccc(F)c4sc(N)c(C#N)c34)c(C(F)(F)F)cc12)[C@H]1CCN(C(=O)C2CC2(F)F)C1 (stereo partly drawn) [Compound 548]
10 | 0.1 to 1 | < 0.1 | 0.1 to 1 | 0.1 to 1 | < 0.1 | 0.1 to 1 | – | – | – | – | – | – | – | – | – | – | CN(c1nc(OC[C@@]23CCCN2C[C@H](F)C3)nc2c(F)c(-c3ccc(F)c4sc(N)c(C#N)c34)c(C(F)(F)F)cc12)[C@H]1CCCOC1 [Compound 280]
11 | – | – | – | – | – | – | 0.1 to 1 | < 0.1 | 0.1 to 1 | 0.1 to 1 | < 0.1 | 0.1 to 1 | – | – | – | – | CCN(CC)C(=O)c1cc2n(n1)CCN(c1nc(OCC34CCCN3CC(F)C4)nc3c(F)c(-c4ccc(F)c5sc(N)c(C#N)c45)c(C(F)(F)F)cc13)C2 (stereo not drawn) [Compound 645]
12 | 1 to 10 | 0.1 to 1 | 0.1 to 1 | 1 to 10 | < 0.1 | 0.1 to 1 | – | – | – | – | – | – | – | – | – | – | CC(=O)N1C[C@@H]2CCCN(c3nc(OC[C@@]45CCCN4C[C@H](F)C5)nc4c(F)c(-c5ccc(F)c6sc(N)c(C#N)c56)c(C(F)(F)F)cc34)[C@@H]2C1 [Compound 451]
13 | – | < 0.1 | – | – | < 0.1 | – | – | – | – | – | – | – | 0.1 to 1 | 0.1 to 1 | 1 to 10 | 0.1 to 1 | N#Cc1c(N)sc2c(F)ccc(-c3c(C(F)(F)F)cc4c(N5CCCCC5)nc(OC[C@@]56CCCN5C[C@H](F)C6)nc4c3F)c12 [Compound 203]
14 | – | – | – | – | – | – | < 0.1 | < 0.1 | < 0.1 | < 0.1 | < 0.1 | < 0.1 | – | – | – | – | CCN(c1nc(OC[C@@]23CCCN2C[C@H](F)C3)nc2c(F)c(-c3ccc(F)c4sc(N)c(C#N)c34)c(C(F)(F)F)cc12)[C@H]1CCN(C(=O)[C@@H]2C[C@H]2F)C1 (atropisomer, axis not shown) [Compound 768]
15 | – | < 0.1 | – | – | < 0.1 | – | – | – | – | – | – | – | 0.1 to 1 | 0.1 to 1 | 0.1 to 1 | 0.1 to 1 | CN(CCS(C)(=O)=O)c1nc(OC[C@@]23CCCN2C[C@H](F)C3)nc2c(F)c(-c3ccc(F)c4sc(N)c(C#N)c34)c(C(F)(F)F)cc12 [Compound 217]
16 | 1 to 10 | < 0.1 | 1 to 10 | 1 to 10 | < 0.1 | 1 to 10 | – | – | – | – | – | – | – | – | – | – | CC(=O)N1CCN(c2nc(OC[C@@]34CCCN3C[C@H](F)C4)nc3c(F)c(-c4ccc(F)c5sc(N)c(C#N)c45)c(C(F)(F)F)cc23)C2CC21 (stereo partly drawn) [Compound 358]
